Data on six molecules can be found in patent US8580921B2, “Protein nanorings” (University of Minnesota, priority 2005, dated 2013).

For series [1] the following is noted: given orally to mice; cited from earlier work.
For series [2] the following is noted: humans; cited from earlier work.
The test system of a further series is Daudi cells. Conditions: 2 hr incubation; cited from earlier work.
For series [3], the system named is 39 human tumor cell lines. To be noted: cited from earlier work.
Series [4] is described as follows: SEC of isolated DHFR^2 oligomers after storage or dilution. It counts as physicochemical. Conditions: oligomers with MTX^2-C9 isolated by SEC (dimers, tetramers, octamers), stored 2 weeks at 4° C. As to the method: SEC was employed to initially assess the degree of DHFR^2 induced oligomerization by MTX^2. The purified DHFR^2-13 (10 uM) and MTX^2-C9 were mixed at a range of stoichiometries, allowed to equilibrate for one hour, and assayed by size exclusion chromatography on a Superdex G75 Column (Amersham).
Assemblies of this size, however, approach or exceed the exclusion limit of the G75 matrix, preventing definitive assignment of the molecular weight and oligomer number. The dimeric fraction increased at the expense of the larger oligomers with time, becoming the dominant species. […] For DHFR^2-3, tetramers were the dominant species, further increasing with time. […] In addition, in contrast to the expected result from linear oligomers, no observable change in composition was observed when oligomer samples were dilution to a concentration of 5 nM.
Background: SEC sorts molecules by how far they enter the pores of the column.

By half-life is commonly meant how long it takes for the measured level to halve. `COc1cc(Cc2cnc(N)nc2N)cc(OC)c1OC` [trimethoprim]: the LD50 entry in series [1] is listed as “greater than 3 grams/kg”. The half-life in series [2] was 11 h.
As usually defined, the IC50 is the concentration that gives 50% inhibition. With auristatin, the half-inhibitory concentration (IC50) was 4.6 ± 4.3 nM with Daudi cells and 3.2 ± 0.51 nM in series [3].
Regarding `COc1cccc2c1C(=O)c1c(O)c3c(c(O)c1C2=O)C[C@@](O)(C(=O)CO)C[C@@H]3O[C@H]1C[C@H](N)[C@H](O)[C@H](C)O1` [doxorubicin], in the series on Daudi cells, the IC50 was 225 ± 35 nM.

B1: DHFR^2-1G: E. coli DHFR-DHFR fusion protein with 1 (G) amino acid linker (protein)
chain: MISLIAALAVDRVIGMENAMPWNLPADLAWFKRNTLNKPVIMGRHTWESIGRPLPGRKNIILSSQPGTDDRVTWVKSVDEAIAACGDVPEIMVIGGGRVYEQFLPKAQKLYLTHIDAEVEGDTHFPDYEPDDWESVFSEFHDADAQNSHSYCFEILERRGMISLIAALAVDRVIGMENAMPWNLPADLAWFKRNTLNKPVIMGRHTWESIGRPLPGRKNIILSSQPGTDDRVTWVKSVDEAIAACGDVPEIMVIGGGRVYEQFLPKAQKLYLTHIDAEVEGDTHFPDYEPDDWESVFSEFHDADAQNSHSYCFEILERR
modifications: left off: small tags and cut ends
notes: E. coli DHFR-DHFR fusion protein with 1 (G) amino acid linker
As to B1, the “oligomer composition on re-injection after storage” value (“oligomer composition” for short) in series [4] was “no change in the oligomer composition”.

B2: DHFR^2-13: two wild-type E. coli DHFR modules separated by a 13 (GLG5LVPRGT) amino acid linker (protein)
chain: MISLIAALAVDRVIGMENAMPWNLPADLAWFKRNTLNKPVIMGRHTWESIGRPLPGRKNIILSSQPGTDDRVTWVKSVDEAIAACGDVPEIMVIGGGRVYEQFLPKAQKLYLTHIDAEVEGDTHFPDYEPDDWESVFSEFHDADAQNSHSYCFEILERRGLGGGGGLVPRGTMISLIAALAVDRVIGMENAMPWNLPADLAWFKRNTLNKPVIMGRHTWESIGRPLPGRKNIILSSQPGTDDRVTWVKSVDEAIAACGDVPEIMVIGGGRVYEQFLPKAQKLYLTHIDAEVEGDTHFPDYEPDDWESVFSEFHDADAQNSHSYCFEILERR
modifications: left off: small tags and cut ends
In the case of B2, in series [4], the “oligomer composition” value is on record as “no change in the oligomer composition”.

B3: DHFR^2-3: E. coli DHFR-DHFR fusion protein with 3 amino acid linker (GGT) (protein)
chain: MISLIAALAVDRVIGMENAMPWNLPADLAWFKRNTLNKPVIMGRHTWESIGRPLPGRKNIILSSQPGTDDRVTWVKSVDEAIAACGDVPEIMVIGGGRVYEQFLPKAQKLYLTHIDAEVEGDTHFPDYEPDDWESVFSEFHDADAQNSHSYCFEILERRGGTMISLIAALAVDRVIGMENAMPWNLPADLAWFKRNTLNKPVIMGRHTWESIGRPLPGRKNIILSSQPGTDDRVTWVKSVDEAIAACGDVPEIMVIGGGRVYEQFLPKAQKLYLTHIDAEVEGDTHFPDYEPDDWESVFSEFHDADAQNSHSYCFEILERR
modifications: left off: small tags and cut ends
In the case of B3, the “oligomer composition” value in series [4] was “no change in the oligomer composition”.
